Test results reported in US8012967B2, “Minor groove binders” (University of Strathclyde, priority 2006, dated 2011).
In brackets after ≈: the same amount, converted by molar mass. Like-named read-outs stand apart in the source and are kept apart here.

Key:
[1] = test system: S. aureus LS-1; assay: S. aureus infection model in mice, minimal effective dose; assay type: in vivo; design: Development of swollen joints following infection: unit not given here; conditions: mice
Protocol: In relation to the methods described in J. Med. Microbiol. 46, 208-213 (1997), compounds may be evaluated in vivo using a model S. Aureus strain LS-1 which, when injected intravenously into mice, consistently causes transient bacteraemia followed by joint localization in 3-4 days. Normal control mice show inflammation of 50-60% of their joints within 3-4 days. The severity of joint sepsis was measured using calipers to determine the diameter of the affected joints. In general, five groups of mice normally having a mean weight of between 18-28 g (5 mice per group) are used for each compound tested, wherein each group is infected with S. Aureus and then provided with a certain dose of the compound to be tested (with one group acting a control).
Determination of minimal effective dose of title compound of Example 2 in S. aureus infection model.
Mice were infected with S. aureus LS-1 (50 million cfu by iv injection) and treated with graded doses of the compound of Example 2 (iv injection within 30 minutes). Each group contained 5 mice and comprised the following.
Group 1: S. aureus LS-1 only
Group 2: S. aureus LS-1 plus 60 mg/kg of the compound of Example 2
Group 3: S. aureus LS-1 plus 40 mg/kg of the compound of Example 2
Group 4: S. aureus LS-1 plus 20 mg/kg of the compound of Example 2
Group 5: S. aureus LS-1 plus 10 mg/kg of the compound of Example 2
Mice were assessed daily for weight loss, development of swollen joints and morbidity/mortality.

[2] = test system: clinical strains of S. aureus in the Scottish Clinical Isolates Collection; assay: MIC against collected clinical strains of S. aureus (BSAC03/04/05 (1)-(10)); assay type: cell-based, Staphylococcus aureus; conditions: for MIC: Staphylococcus aureus, read-out: Minimum inhibitory concentrations (MICs)
Source text: In particular, minimum inhibitory concentrations (MICs) against microorganisms (e.g. S. Aureus, Streptococcus faecalis, Aspergillus niger, Candida albicans or Mycobacterium fortuitum) for compounds of the invention may be measured using procedures such as those described in A. J. Drummond and R. D. Waigh “The development of microbiological methods for phytochemical screening” Recent Res. Devel. Phytochem. 4, 143-152 (2000), the disclosures of which document are hereby incorporated by reference.
Sample dilutions were typically prepared by dissolving the test sample (2 mg) in sterile water (10 mL) to provide a working concentration of 200 μg/ml. The test wells on each 96 well microtitre plate were initially inoculated with culture medium (100 μL) using Mueller-Hinton Broth for antibacterial assays and Sabouraud Broth for antifungal assays. A solution of each test sample (100 μL) was added to one row of each plate and a series of doubling dilutions made for successive rows. Incubation was at 37° C. for antibacterial assay and 25° C. for antifungal assay. […] From the observed pattern of colour, the MIC was determined. All tests included sterility and growth controls.
BSAC03/04/05 (1)-(10) refer to collected clinical strains of S. aureus in the Scottish Clinical Isolates Collection.

## Cn1cc(NC(=O)c2cc(NC(=O)c3ccc(/C=C/c4cnc5ccccc5c4)cc3)cn2C)cc1C(=O)NCCN1CCOCC1 [Example 2, 1-Methyl-4-({[1-methyl-4-({4-[(E)-2-(3-quinolinyl)ethenyl]benzoyl}amino)-1H-pyrrol-2-yl]carbonyl}amino)-N-[2-(4-morpholinyl)ethyl]-1H-pyrrole-2-carboxamide]
[1]; count n/N, Group 5, 10 mg/kg iv, day 5 post infection
  Development of swollen joints following infection: 2/20
[1]; count n/N, Group 5, 10 mg/kg iv, day 6 post infection
  Development of swollen joints following infection: 5/16
[1]; count n/N, Group 5, 10 mg/kg iv, day 7 post infection
  Development of swollen joints following infection: 4/12
[1]; figure in parentheses, Group 2, 60 mg/kg iv, day 2 post infection
  Development of swollen joints following infection: 0
[1]; figure in parentheses, Group 2, 60 mg/kg iv, day 3 post infection
  Development of swollen joints following infection: 0
[1]; figure in parentheses, Group 2, 60 mg/kg iv, day 4 post infection
  Development of swollen joints following infection: 0
[1]; figure in parentheses, Group 2, 60 mg/kg iv, day 5 post infection
  Development of swollen joints following infection: 0
[1]; figure in parentheses, Group 2, 60 mg/kg iv, day 6 post infection
  Development of swollen joints following infection: 0
[1]; figure in parentheses, Group 2, 60 mg/kg iv, day 7 post infection
  Development of swollen joints following infection: 0
[1]; figure in parentheses, Group 3, 40 mg/kg iv, day 2 post infection
  Development of swollen joints following infection: 0
[1]; figure in parentheses, Group 3, 40 mg/kg iv, day 3 post infection
  Development of swollen joints following infection: 0
[1]; figure in parentheses, Group 3, 40 mg/kg iv, day 4 post infection
  Development of swollen joints following infection: 10
[1]; figure in parentheses, Group 3, 40 mg/kg iv, day 5 post infection
  Development of swollen joints following infection: 15
[1]; figure in parentheses, Group 3, 40 mg/kg iv, day 6 post infection
  Development of swollen joints following infection: 15
[1]; figure in parentheses, Group 3, 40 mg/kg iv, day 7 post infection
  Development of swollen joints following infection: 15
[1]; figure in parentheses, Group 4, 20 mg/kg iv, day 2 post infection
  Development of swollen joints following infection: 5
[1]; figure in parentheses, Group 4, 20 mg/kg iv, day 3 post infection
  Development of swollen joints following infection: 5
[1]; figure in parentheses, Group 4, 20 mg/kg iv, day 4 post infection
  Development of swollen joints following infection: 10
[1]; figure in parentheses, Group 4, 20 mg/kg iv, day 5 post infection
  Development of swollen joints following infection: 6.3
[1]; figure in parentheses, Group 4, 20 mg/kg iv, day 6 post infection
  Development of swollen joints following infection: 30
[1]; figure in parentheses, Group 4, 20 mg/kg iv, day 7 post infection
  Development of swollen joints following infection: 33
[1]; figure in parentheses, Group 5, 10 mg/kg iv, day 2 post infection
  Development of swollen joints following infection: 5
[1]; figure in parentheses, Group 5, 10 mg/kg iv, day 3 post infection
  Development of swollen joints following infection: 5
[1]; figure in parentheses, Group 5, 10 mg/kg iv, day 4 post infection
  Development of swollen joints following infection: 10
[1]; figure in parentheses, Group 5, 10 mg/kg iv, day 5 post infection
  Development of swollen joints following infection: 10
[1]; figure in parentheses, Group 5, 10 mg/kg iv, day 6 post infection
  Development of swollen joints following infection: 31
[1]; figure in parentheses, Group 5, 10 mg/kg iv, day 7 post infection
  Development of swollen joints following infection: 33
[2]; S. aureus BSAC culture year 2003 number 1
  MIC: 0.25 µg/mL (≈ 0.396 µM)
[2]; S. aureus BSAC culture year 2003 number 2
  MIC: 0.25 µg/mL (≈ 0.396 µM)
[2]; S. aureus BSAC culture year 2003 number 3
  MIC: 0.25 µg/mL (≈ 0.396 µM)
[2]; S. aureus BSAC culture year 2003 number 4
  MIC: 0.12 µg/mL (≈ 0.19 µM)
[2]; S. aureus BSAC culture year 2003 number 5
  MIC: 0.12 µg/mL (≈ 0.19 µM)
[2]; S. aureus BSAC culture year 2003 number 6
  MIC: 0.12 µg/mL (≈ 0.19 µM)
[2]; S. aureus BSAC culture year 2003 number 7
  MIC: 0.12 µg/mL (≈ 0.19 µM)
[2]; S. aureus BSAC culture year 2003 number 8
  MIC: 0.06 µg/mL (≈ 0.095 µM)
[2]; S. aureus BSAC culture year 2003 number 9
  MIC: 0.25 µg/mL (≈ 0.396 µM)
[2]; S. aureus BSAC culture year 2003 number 10
  MIC: 0.25 µg/mL (≈ 0.396 µM)
[2]; S. aureus BSAC culture year 2004 number 1
  MIC: 0.25 µg/mL (≈ 0.396 µM)
[2]; S. aureus BSAC culture year 2004 number 2
  MIC: 0.5 µg/mL (≈ 0.791 µM)
[2]; S. aureus BSAC culture year 2004 number 3
  MIC: 0.5 µg/mL (≈ 0.791 µM)
[2]; S. aureus BSAC culture year 2004 number 4
  MIC: 0.25 µg/mL (≈ 0.396 µM)
[2]; S. aureus BSAC culture year 2004 number 5
  MIC: 0.12 µg/mL (≈ 0.19 µM)
[2]; S. aureus BSAC culture year 2004 number 6
  MIC: 0.25 µg/mL (≈ 0.396 µM)
[2]; S. aureus BSAC culture year 2004 number 7
  MIC: 0.12 µg/mL (≈ 0.19 µM)
[2]; S. aureus BSAC culture year 2004 number 8
  MIC: 0.25 µg/mL (≈ 0.396 µM)
[2]; S. aureus BSAC culture year 2004 number 9
  MIC: 0.12 µg/mL (≈ 0.19 µM)
[2]; S. aureus BSAC culture year 2004 number 10
  MIC: 0.12 µg/mL (≈ 0.19 µM)
[2]; S. aureus BSAC culture year 2005 number 1
  MIC: 0.25 µg/mL (≈ 0.396 µM)
[2]; S. aureus BSAC culture year 2005 number 2
  MIC: 1 µg/mL (≈ 1.58 µM)
[2]; S. aureus BSAC culture year 2005 number 3
  MIC: 0.12 µg/mL (≈ 0.19 µM)
[2]; S. aureus BSAC culture year 2005 number 4
  MIC: 0.25 µg/mL (≈ 0.396 µM)
[2]; S. aureus BSAC culture year 2005 number 5
  MIC: 0.25 µg/mL (≈ 0.396 µM)
[2]; S. aureus BSAC culture year 2005 number 6
  MIC: 0.12 µg/mL (≈ 0.19 µM)
[2]; S. aureus BSAC culture year 2005 number 7
  MIC: 0.25 µg/mL (≈ 0.396 µM)
[2]; S. aureus BSAC culture year 2005 number 8
  MIC: 0.5 µg/mL (≈ 0.791 µM)
[2]; S. aureus BSAC culture year 2005 number 9
  MIC: 0.25 µg/mL (≈ 0.396 µM)
[2]; S. aureus BSAC culture year 2005 number 10
  MIC: 0.12 µg/mL (≈ 0.19 µM)
[2]; result in words
  microbicidal activity against a number of different strains of Staphylococcus aureus: displayed microbicidal activity
